The subject of one test is BxPc3. The test is described as follows: Proliferation of cultured cells, 72 hr. As to conditions: 5% FCS, 0 to 1 mM. The format is cell-based, human. On the procedure:
(§1) FIG. 19. Effect of GSAO on proliferation of non-endothelial cells. 15,000 BxPC-3 (part A), HT1080 (part B), 3T3 (part C) or BVSM (part D) cells per well were seeded into gelatinised 24-well culture plates and allowed to attach for 24 hr. The media was then replaced with DMEM containing 0 to 1 mM GSAO or GSAA and either 5% BCS (part D) or 5% FCS (parts A, B and C). Cells were cultured for 72 hr and then dispersed and counted. The dotted lines indicate the cell number in control wells containing DMEM and 2% BCS (part D) or 2% FCS (parts A, B and C) which represented no to limited proliferation. The data points and errors represent the mean and range of duplicate wells.
(§2) BCE (Folkman et al. 1979), BAE, BxPC-3 (ATCC, Bethesda, Md.), HT1080 (Jiang et al., 1999), 3T3 (ATCC, Bethesda, Md.) and BVSM (Hogg et al., 1997) cells were harvested and cultured as indicated. Cells (0.5 mL of 30,000 or 100,000 cells per mL) were seeded into gelatinized 24-well culture plates (Corning Costar, Corning, N.Y.) in Dulbecco's Modified Eagle's Medium (DMEM, JHR Bioscience, Lenexa, Kans.) containing 10% fetal calf serum (FCS, Intergen Comp., Purchase, N.Y.) and 1% Glutamine Pen-Strep (GPS, Irvine Scientific, Santa Ana, Va.) and allowed to attach for 24 hr in 10% CO2 at 37° C. The media was then replaced with DMEM and 1% GPS containing 0 to 1 mM GSAO or GSAA and either 5% bovine calf serum (BCS, HyClone, Logan, Utah) and 1 ng per mL FGF-2 (Genzyme, Cambridge, Mass.) or 5% BCS and 10 ng per mL VEGF (Genzyme, Cambridge, Mass.) for BCE cells, 5% or 10% BCS for BAE cells, 5% BCS for BVSM cells, and 5% FCS for BxPC-3, HT1080 and 3T3 cells. Cells were cultured for 0 to 72 hr in 10% CO2 at 37° C. then dispersed in trypsin/EDTA (GibcoBRL, Granc Island, N.Y.), resuspended in Coulter balanced electrolyte solution and counted with a Z1 Coulter counter (Coulter Corp., Miami, Fla.) in all experiments there were two control wells containing DMEM with 1% GPS and either 5% BCS for BCE cells, 2% BCS for BAE and BVSM cells, or 2% FCS for BxPC-3, HT1080 and 3T3 cells. These wells represented no to limited proliferation.

The test system of the next test is HT1080. The test is described as follows: Proliferation of cultured cells, 72 hr. The test is classed as cell-based, human. The conditions noted are these: 5% FCS, 0 to 1 mM. As for the experimental part: as §1, §2
The next test deals with BxPC-3 tumours. The test is described as follows: Tumour growth in mice, subcutaneous administration. The format is in vivo, SCID mice. As to conditions: for inhibition of the rate of BxPC-3 tumour growth: subcutaneous. On the procedure: FIG. 23. Inhibition of human pancreatic tumour growth by GSAO. BxPC-3 tumours were established in the proximal midline of female 7 to 9 week old SCID mice. When the tumours were ˜0.1 cm^3 in volume the mice were randomised into two groups and treated with either GSAA or GSAO at doses of 2 (part A) or 10 (part B) mg per kg per day in 0.2 mL of PBS containing 100 mM glycine. The compounds were administered subcutaneously at a site distant from the tumour. Tumour volume and animal weight was measured every 3 days. The GSAO/GSAA tumour volume ratio at day 26 of treatment with 2 mg per kg per day was 0.34 (part A). The GSAO/GSAA tumour volume ratio at day 31 of treatment with 10 mg per kg per day was 0.09 (part B). There were 4 mice per group in part A and 4 mice treated with GSAA and 5 with GSAO in part B. The mice and excised tumours from the experiment described in Part B at day 31 of treatment are shown in Part C. The data points and errors represent the mean and SE of the tumour volumes.
Female 7 to 9 week old SCID or C57Bl6/J mice were used (Massachusetts General Hospital, Boston, Mass.). Mice were held in groups of 3 to 5 at a 12 hour day and night cycle and were fed with animal chow and water ad libidum. SCID mice were anaesthetised by inhalation of isoflurane, the dorsal skin shaved and cleaned with ethanol, and a suspension of 2.5×10^6 BxPC-3 or HT1080 cells in 0.2 mL of DMEM was injected subcutaneously in the proximal midline. C57Bl6/J mice with Lewis lung carcinomas of 0.6-1.2 cm^3 volumes were sacrificed and the skin overlying the tumour was cleaned with betadine and ethanol. Tumour tissue was excised under aseptic conditions and a suspension of tumour cells in 0.9% saline was made by passage of tumour tissue through a sieve and a series of sequentially smaller 22- to 30-gauge hypodermic needles. C57Bl6/J mice were anaesthetised and prepared as for SCID mice and a suspension of Lewis lung carcinoma cells in 0.2 mL of saline was injected subcutaneously in the proximal midline. Tumours were allowed to establish and grow to a size of ˜0.1 cm^3 after which they were randomised into two groups. The tumours were measured in two diameters and tumour volume was calculated using the relationship, tumour volume=a×b^2×0.52, where a is the longest and b the shortest diameters in cm. Animals were treated with either GSAA or GSAO at doses of 2 or 10 mg per kg per day in 0.2 mL of PBS containing 100 mM glycine. The compounds were administered subcutaneously at a site distant from the tumour. Tumour volume and animal weight was measured every 3 days. The tumours were excised and weighed when the animals were sacrificed.

Another test deals with 3T3. The test is described as follows: Proliferation of cultured cells, 72 hr. The test is classed as cell-based, murine. As to conditions: 5% FCS, 0 to 1 mM. On the procedure:
as §1
BCE (Folkman et al. 1979), BAE, BxPC-3 (ATCC, Bethesda, Md.), HT1080 (Jiang et al., 1999), 3T3 (ATCC, Bethesda, Md.) and BVSM (Hogg et al., 1997) cells were harvested and cultured as indicated. […] Cells were cultured for 0 to 72 hr in 10% CO2 at 37° C. then dispersed in trypsin/EDTA (GibcoBRL, Granc Island, N.Y.), resuspended in Coulter balanced electrolyte solution and counted with a Z1 Coulter counter (Coulter Corp., Miami, Fla.) in all experiments there were two control wells containing DMEM with 1% GPS and either 5% BCS for BCE cells, 2% BCS for BAE and BVSM cells, or 2% FCS for BxPC-3, HT1080 and 3T3 cells. […]

The subject of the next test is Lewis lung tumours. The test is described as follows: Tumour growth, oral administration in water. The format is in vivo, C57Bl6/J mice. As to conditions: ~10 mg per kg per day in water. On the procedure: FIG. 28. Inhibition of human pancreatic carcinoma and murine Lewis lung tumour growth by oral administration of GSAO. BxPC-3 or Lewis lung tumours were established in the proximal midline of female 7 to 9 week old SCID or C57Bl6/J mice, respectively, SCID mice bearing ˜0.5 g BxPC-3 tumours or C57Bl6/J mice bearing 0.1 g Lewis lung tumours were randomised into two groups (n=2 for BxPC-3 and n=3 for Lewis lung) and treated with either GSAA or GSAO (0.05 mg per mL) in their water. Mice drink ˜5 mL of water per day and therefore consumed ˜10 mg GSAO or GSM per kg per day. The water contained 100 mM glycine to minimise oxidation of GSAO. Tumour volume and animal weight was measured every 3 days. The data points and errors represent the mean and SE of the tumour volumes.
SCID mice bearing subcutaneous human pancreatic carcinoma tumours or C57Bl6/J mice bearing subcutaneous murine Lewis lung tumours were fed either ˜10 mg per kg per day GSAO or GSAA in their water.

“Also recorded” adds a separate entry of the source.

For `N[C@@H](CCC(=O)N[C@@H](CSCC(=O)Nc1ccc([As](=O)(O)O)cc1)C(=O)NCC(=O)O)C(=O)O` [GSAA, 4-(N-(S-glutathionylacetyl)amino)phenylarsonic acid, reference compound], the “Proliferation IC50” value in the test with BxPc3, in the test on HT1080 and in the test on 3T3 was “no significant effect” each time. Further, the “inhibition of the rate of BxPC-3 tumour growth” value is on record as “no effect” with BxPC-3 tumours (2 mg per kg per day) and less than 20% in the test on BxPC-3 tumours (10 mg per kg per day). Further, the “reduction of the rate of Lewis lung tumour growth” value with Lewis lung tumours is recorded as “no significant effect”.

`NC(CCC(=O)NC(CSCC(=O)Nc1ccc([As]=O)cc1)C(=O)NCC(=O)O)C(=O)O` (centres unmarked) [GSAO, 4-(N-(S-glutathionylacetyl)amino)-phenylarsenoxide]: the entries for the “Proliferation IC50” value with BxPc3, in the test with HT1080 and in the test with 3T3 were “did not affect the proliferation”, “did not affect the proliferation” and “did not affect the proliferation; also recorded: No effect”, respectively. The “inhibition of the rate of BxPC-3 tumour growth” value is approximately 70% in the test with BxPC-3 tumours (2 mg per kg per day) and more than 90% in the test with BxPC-3 tumours (10 mg per kg per day). Moreover, the “GSAO/GSAA tumour volume ratio” value in the test on BxPC-3 tumours (day 26 of treatment, 2 mg per kg per day) is 0.34; with BxPC-3 tumours (day 31 of treatment, 10 mg per kg per day), 0.09. For the same molecule, the “reduction of the rate of Lewis lung tumour growth” value in the test on Lewis lung tumours is recorded as approximately 50%.

Values taken from patent publication US7498406B2, “Substantially cell membrane impermeable compound and use thereof” (priority 1999, dated 2009).
